Measurements reported in US8058309B2, “Protein kinase modulators and therapeutic uses thereof” (Novotyr Therapeutics Ltd., priority 2006, dated 2011).

Test system: Panc1 tumors
Assay: Pancreatic cancer Panc1 xenograft tumor growth
Format: in vivo, nude mice
Details: intratumoral, 1/day, 125 μg/day
Description: Human hormone-refractory prostate cancer PC3 cells (ATCC, 1.5×10^6 cells per mouse) were injected subcutaneously into the right leg of Nude:Hsd mice (purchased from Harlan). Ten days later, when palpable tumors had developed, mice were divided into 3 groups with similar average tumor size. […] The mice treated with compound 7 group were daily injected with compound 7 dissolved in the below described vehicle, and the vehicle-treated group (veh) was daily injected by the vehicle alone. Vehicle included 4.4% DMSO, 1.2% Ethanol and 50% PEG400 in DDW; Groups were composed of 3 mice per group. Dose administered IP was 50 mg/Kg (4 ml/Kg) once a day for one month. The length (l) and the width (w) of the tumors were measured every day and the volumes of the tumors were calculated as follows: v=1w^2/2. Graphs present average volumes of the tumors versus time in days. The procedure was followed for the other described in-vivo studies with the following modifications:
Human pancreatic cancer Pancl cells (2×10^6 cells per mouse) were injected subcutaneously into the right leg of male Nude:Hsd mice (purchased from Harlan). Compound 7 was injected intratumorally (IT) daily at doses of 125 μg/mouse in 0.06% DMSO and 2.16% PEG400 in saline.

N#C/C(=C\c1cc(O)c(O)c(Br)c1)C(=S)NCc1cc(O)c(O)c(O)c1 [Compound 7]
Growth inhibition of pancreatic cancer Panc1 tumors: 50%
